The values below come from patent US20140135327A1, “N- (2 -AMINOPHENYL) BENZAMIDE DERIVATIVES AS HISTONE DEACETYLASE INHIBITORS” (CANCER RESEARCH TECHNOLOGY LIMITED, priority 2011, published 2014).

The target in one series is HDAC 3 (Homo sapiens, UniProt O15379). Put plainly: Caliper HDAC inhibitor profiling assay (microfluidic mobility-shift), HDAC 3. It is filed as biochemical. The conditions noted are these: 1 hour at room temperature, read-out: IC50 (μM) HDAC3. As to the method:
(§1) The activity of the compounds of the invention against HDAC 3 (Class I) and HDAC 6 (Class II) can be determined using the Caliper Life Sciences HDAC inhibitor profiling assay, which utilises microfluidic mobility-shift detection.
(§2) Reaction buffer: 25 mM Tris/Cl, pH 8.0, 137 mM NaCl, 2.7 mM KCl, 1 mM MgCl2, 0.1 mg/ml BSA (fatty acid free).
(§3) Stop Buffer: 100 mM HEPES, pH 7.5, 10 mM EDTA, 0.04% Brij-35, 0.25% CR-3, and 2.5 μM Trichostatin A.
(§4) Stopped reactions were assembled in microtiter plate wells by adding 1 μL of the inhibitor compound in DMSO, 15 μL 2× Enzyme, and 15 μL 2× peptide. The reactions were incubated for 1 hour at room temperature, stopped with the addition of 45 μL Stop Solution, and read on the LabChip EZ Reader®. The curves were fit with sigmoidal dose response algorithm using GraphPad Prism.

A further series addresses T1, HDAC 6 (Homo sapiens, UniProt Q9UBN7).
T1 sequence (Q9UBN7 1-1215): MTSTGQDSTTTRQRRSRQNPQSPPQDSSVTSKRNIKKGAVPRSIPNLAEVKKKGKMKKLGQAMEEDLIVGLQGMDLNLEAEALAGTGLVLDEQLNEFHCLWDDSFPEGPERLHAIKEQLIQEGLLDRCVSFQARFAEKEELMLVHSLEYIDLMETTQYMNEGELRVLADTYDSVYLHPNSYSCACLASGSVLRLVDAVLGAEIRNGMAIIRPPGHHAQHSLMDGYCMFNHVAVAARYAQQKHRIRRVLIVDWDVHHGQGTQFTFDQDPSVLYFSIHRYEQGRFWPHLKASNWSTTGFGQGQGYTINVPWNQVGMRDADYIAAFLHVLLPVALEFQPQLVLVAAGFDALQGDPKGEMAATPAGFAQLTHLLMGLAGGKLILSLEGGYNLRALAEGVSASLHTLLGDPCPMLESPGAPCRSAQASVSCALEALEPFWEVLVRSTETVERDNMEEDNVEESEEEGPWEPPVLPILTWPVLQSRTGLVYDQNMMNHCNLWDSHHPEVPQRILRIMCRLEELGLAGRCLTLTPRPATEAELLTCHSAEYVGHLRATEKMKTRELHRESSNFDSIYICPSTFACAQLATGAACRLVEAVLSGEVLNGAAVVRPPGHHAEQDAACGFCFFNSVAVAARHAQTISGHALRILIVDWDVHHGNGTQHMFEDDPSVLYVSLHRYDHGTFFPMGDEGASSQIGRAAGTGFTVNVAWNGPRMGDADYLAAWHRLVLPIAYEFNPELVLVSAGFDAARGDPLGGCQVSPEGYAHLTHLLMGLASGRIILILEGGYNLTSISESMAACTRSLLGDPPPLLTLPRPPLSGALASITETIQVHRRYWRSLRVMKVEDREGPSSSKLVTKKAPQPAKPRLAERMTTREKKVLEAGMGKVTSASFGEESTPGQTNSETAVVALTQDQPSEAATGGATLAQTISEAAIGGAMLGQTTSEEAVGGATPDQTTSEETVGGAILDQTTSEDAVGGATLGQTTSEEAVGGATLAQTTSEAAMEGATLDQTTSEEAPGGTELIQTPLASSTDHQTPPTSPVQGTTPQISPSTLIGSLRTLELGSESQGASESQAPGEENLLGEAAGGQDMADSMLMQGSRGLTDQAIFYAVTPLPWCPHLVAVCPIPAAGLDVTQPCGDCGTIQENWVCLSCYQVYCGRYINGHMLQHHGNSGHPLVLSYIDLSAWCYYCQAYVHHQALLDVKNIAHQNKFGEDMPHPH
Put plainly: Caliper HDAC inhibitor profiling assay (microfluidic mobility-shift), HDAC 6. The following applies: 1 hour at room temperature, read-out: IC50 (μM) HDAC6. The format is biochemical. As to the method:
as §1, §2, §3, §4

Sequence of HDAC 3 (O15379 whole entry, species assumed): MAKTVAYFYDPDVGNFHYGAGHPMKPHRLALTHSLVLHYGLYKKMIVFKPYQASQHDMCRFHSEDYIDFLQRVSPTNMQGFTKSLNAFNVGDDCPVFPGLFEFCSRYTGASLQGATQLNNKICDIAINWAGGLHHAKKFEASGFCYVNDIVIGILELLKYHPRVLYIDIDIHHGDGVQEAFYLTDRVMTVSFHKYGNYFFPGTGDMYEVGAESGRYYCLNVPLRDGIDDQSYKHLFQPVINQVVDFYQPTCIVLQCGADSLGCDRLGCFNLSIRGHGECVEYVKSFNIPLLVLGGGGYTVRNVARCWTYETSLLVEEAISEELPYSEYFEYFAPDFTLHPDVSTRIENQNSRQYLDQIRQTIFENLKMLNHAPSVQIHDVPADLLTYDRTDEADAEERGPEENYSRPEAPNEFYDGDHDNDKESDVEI
Sequence of HDAC 3 (Q9Y618 395-489 partner limits assumed, species assumed): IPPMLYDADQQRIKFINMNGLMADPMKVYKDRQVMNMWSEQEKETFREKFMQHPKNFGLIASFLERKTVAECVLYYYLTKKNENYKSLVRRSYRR

Compound `C=C1CN(Cc2ccc(C(=O)Nc3ccccc3N)cc2)C(CC(=O)OCC)c2ccccc21` (stereo not drawn) [Example 1, Ethyl [2-(4-{[(2-aminophenyl)amino]carbonyl}benzyl)-4-methylene-1,2,3,4-tetrahydroisoquinolin-1-yl]acetate] returned a melting point of 111 to 113 °C. Also, the IC50 at HDAC 3 was determined as 0.89 µM. The IC50 at HDAC 6 was greater than 10 µM.
Regarding `C=C1CN(Cc2ccc(C(=O)Nc3ccccc3N)cc2)C(CC(=O)N2CCCCC2)c2ccccc21` (stereo not drawn) [Example 2, N-(2-Aminophenyl)-4-{[4-methylene-1-(2-oxo-2-piperidin-1-ylethyl)-3,4-dihydroisoquinolin-2(1H)-yl]methyl}benzamide], the melting point was in the range of 89 to 91 °C. The IC50 at HDAC 3 worked out at 0.51 µM. Also, the IC50 at HDAC 6 is greater than 10 µM.
With `C=C1CN(Cc2ccc(C(=O)Nc3ccccc3N)cc2)C(CC(=O)OC)c2ccccc21` (stereo not drawn) [Example 3, Methyl [2-(4-{[(2-aminophenyl)amino]carbonyl}benzyl)-4-methylene-1,2,3,4-tetrahydroisoquinolin-1-yl]acetate], the melting point fell in the range of 151 to 153 °C. Also, the IC50 at HDAC 3 was determined as 0.98 µM. For the same compound, on HDAC 6, the IC50 is greater than 10 µM.
For `C=C1CN(Cc2ccc(C(=O)Nc3ccccc3N)cc2)C(CC(=O)N2CCOCC2)c2ccccc21` (stereo not drawn) [Example 4] the same measures were 99 to 101 °C, 0.26 µM and greater than 10 µM.
For `C=C1CN(Cc2ccc(C(=O)Nc3ccccc3N)cc2)C(CC(=O)c2ccccc2)c2ccccc21` (stereo not drawn) [Example 5, N-(2-Aminophenyl)-4-{[4-methylene-1-(2-oxo-2-phenylethyl)-3,4-dihydroisoquinolin-2(1H)-yl]methyl}benzamide], the values for the IC50 at HDAC 3 and at HDAC 6 were 2.7 µM and greater than 10 µM, respectively.
With `C=C1CN(Cc2ccc(C(=O)Nc3ccccc3N)cc2)C(CC#N)c2ccccc21` (stereo not drawn) [Example 6, N-(2-Aminophenyl)-4-{[1-(cyanomethyl)-4-methylene-3,4-dihydroisoquinolin-2(1H)-yl]methyl}benzamide], the melting point is 93 to 95 °C. The IC50 on HDAC 3 was 0.31 µM. For the same compound, at HDAC 6, the IC50 was greater than 10 µM.
`C=C1CN(Cc2ccc(C(=O)Nc3ccccc3N)cc2)C(CC(=O)Nc2ccccc2N)c2ccccc21` (stereo not drawn) [Example 8, N-(2-Aminophenyl)-4-{[1-{2-[(2-aminophenyl)amino]-2-oxoethyl}-4-methylene-3,4-dihydroisoquinolin-2(1H)-yl]methyl}benzamide] came in with a melting point of 135 to 137 °C. The IC50 at HDAC 3 is 0.35 µM. The IC50 on HDAC 6 was greater than 10 µM.
For the compound `C=C1CN(Cc2ccc(C(=O)Nc3ccccc3N)cc2)C(CC(=O)NCCO)c2ccccc21` (stereo not drawn) [Example 10, N-(2-Aminophenyl)-4-{[1-{2-[(2-hydroxyethyl)amino]-2-oxoethyl}-4-methylene-3,4-dihydroisoquinolin-2(1H)-yl]methyl}-benzamide], the IC50 at HDAC 3 is 0.67 µM; at HDAC 6, greater than 10 µM.
`C=C1CN(Cc2ccc(C(=O)Nc3ccccc3N)cc2)C(CC(=O)N2CCN(C)CC2)c2ccccc21` (stereo not drawn) [Example 11, N-(2-Aminophenyl)-4-{[4-methylene-1-[2-(4-methylpiperazin-1-yl)-2-oxoethyl]-3,4-dihydroisoquinolin-2(1H)-yl]methyl}benzamide]: the IC50 on HDAC 3 was 0.56 µM; at HDAC 6 it was greater than 10 µM.
As to `C=C1CN(Cc2ccc(C(=O)Nc3ccccc3N)cc2)C(=O)c2ccc(C(=O)OC)cc21` [Example 13, Methyl 2-(4-{[(2-aminophenyl)amino]carbonyl}benzyl)-4-methylene-1-oxo-1,2,3,4-tetrahydroisoquinoline-6-carboxylate], the melting point lay within 196 to 198 °C. Moreover, the IC50 on HDAC 3 is 0.27 µM. Moreover, the IC50 on HDAC 6 was greater than 10 µM.
Regarding `C=C1CN(Cc2ccc(C(=O)Nc3ccccc3N)cc2)C(=O)c2ccc(C(=O)NCCN)cc21` [Example 14, N-(2-Aminoethyl)-2-(4-{[(2-aminophenyl)amino]carbonyl}benzyl)-4-methylene-1-oxo-1,2,3,4-tetrahydroisoquinoline-6-carboxamide], the melting point was 172 to 174 °C (dec.). Besides, the IC50 on HDAC 3 worked out at 0.23 µM. Further, the IC50 at HDAC 6 is greater than 10 µM.
For `C=C1CN(S(=O)(=O)c2ccc(C(=O)Nc3ccccc3N)cc2)C(CC#N)c2ccccc21` (stereo not drawn) [Example 15] the same measures were 213 to 215 °C, 1.4 µM and greater than 10 µM.
